Reference: the supplement of paper PMC8967900

What was measured:
Experiment in all cases: selective drug sensitivity score (sDSS, relative to normal bone marrow) (sDSS (score)); higher = more potent and effective on the cell line relative to normal bone marrow cells
Details in all cases: 72 h
PF-382 = system: PF-382
COG-LL-402h = system: COG-LL-402h
COG-LL-355h = system: COG-LL-355h
NALM-16 = system: NALM-16
MN-60 = system: MN-60
JURKAT = system: JURKAT
RPMI-8402 = system: RPMI-8402
380 = system: 380
DND-41 = system: DND-41
P12-ICHIKAWA = system: P12-ICHIKAWA
KASUMI-9 = system: KASUMI-9
COG-LL-319h = system: COG-LL-319h
PEER = system: PEER
TANOUE = system: TANOUE
REH = system: REH
ALL-SIL = system: ALL-SIL
MHH-CALL-2 = system: MHH-CALL-2
KASUMI-2 = system: KASUMI-2
697 = system: 697
CCRF-HSB2 = system: CCRF-HSB2
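Note: ALL cell lines in 384-well plates, five doses spanning 10,000-fold, each plate scaled between vehicle and 100 µmol/L benzalkonium chloride controls, sDSS an adapted area-under-curve metric.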

SMILES	selective drug sensitivity score (PF-382)	selective drug sensitivity score (COG-LL-402h)	selective drug sensitivity score (COG-LL-355h)	selective drug sensitivity score (NALM-16)	selective drug sensitivity score (MN-60)	selective drug sensitivity score (JURKAT)	selective drug sensitivity score (RPMI-8402)	selective drug sensitivity score 380	selective drug sensitivity score (DND-41)	selective drug sensitivity score (P12-ICHIKAWA)	selective drug sensitivity score (KASUMI-9)	selective drug sensitivity score (COG-LL-319h)	selective drug sensitivity score (PEER)	selective drug sensitivity score (TANOUE)	selective drug sensitivity score (REH)	selective drug sensitivity score (ALL-SIL)	selective drug sensitivity score (MHH-CALL-2)	selective drug sensitivity score (KASUMI-2)	selective drug sensitivity score 697	selective drug sensitivity score (CCRF-HSB2)
CN1CCN(C(=O)c2ccc3cc(CCNc4ncnc5ccc(C#N)cc45)ccc3c2)CC1 [Senexin_B] (top concentration 1000 nM)	-0.1	-0.4	-0.6	-0.6	1.4	3.1	1.1	-0.6	-0.6	0.4	-0.6	-0.6	1.8	1.1	-0.6	-0.6	-0.1	-0.6	2.1	3.8
Clc1ccccc1C(c1ccccc1)(c1ccccc1)n1cccn1 [TRAM-34] (top concentration 1000 nM)	-0.08	-0.08	-0.08	-0.08	-0.08	-0.08	-0.08	-0.08	-0.08	-0.08	2.52	-0.08	-0.08	-0.08	0.22	-0.08	1.12	-0.08	-0.08	-0.08
C=CC[C@@H]1/C=C(\C)C[C@H](C)C[C@H](OC)[C@H]2O[C@@](O)(C(=O)C(=O)N3CCCC[C@H]3C(=O)O[C@H](/C(C)=C/[C@@H]3CC[C@@H](O)[C@H](OC)C3)[C@H](C)[C@@H](O)CC1=O)[C@H](C)C[C@@H]2OC [Tacrolimus] (top concentration 10000 nM)	0.78	-0.72	3.18	12.5	-0.32	1.78	1.38	1.88	0.68	1.58	12.1	12.7	1.38	-0.72	2.68	1.08	24.6	-0.72	2.88	3.38
CCN(c1cc(-c2ccc(CN3CCOCC3)cc2)cc(C(=O)NCc2c(C)cc(C)[nH]c2=O)c1C)C1CCOCC1 [Tazemetostat] (top concentration 10000 nM)	-0.08	-0.08	-0.08	-0.08	-0.08	0.02	0.22	-0.08	0.02	0.02	0.92	-0.08	0.32	-0.08	-0.08	0.12	6.72	-0.08	0.32	1.42
COc1cc2c(Nc3ccc(Cl)c(Cl)c3F)ncnc2cc1OC[C@@H]1C[C@@H]2CN(C)C[C@@H]2C1 [Tesevatinib] (top concentration 1000 nM)	-1.06	1.64	2.04	-1.36	0.24	-0.16	0.44	-0.96	1.44	-0.46	0.74	-1.36	1.84	-1.36	-1.36	-0.26	1.44	-1.36	-0.66	3.44
O=C1CCC(N2C(=O)c3ccccc3C2=O)C(=O)N1 (stereo not given) [Thalidomide] (top concentration 10000 nM)	-0.14	-0.14	0.16	-0.14	-0.14	-0.14	-0.14	-0.14	-0.14	-0.14	-0.14	-0.14	-0.14	-0.14	-0.04	-0.14	-0.14	-0.14	-0.14	-0.14
O=C1NC(=O)[C@@H](c2cn3c4c(cccc24)CCC3)[C@@H]1c1c[nH]c2ccccc12 [Tivantinib] (top concentration 1000 nM)	2.78	2.38	0.18	4.28	3.78	3.98	3.68	6.18	0.78	3.68	5.38	3.58	4.38	-1.32	7.78	7.18	8.48	0.68	5.18	3.58
C[C@@H]1CCN(C(=O)CC#N)C[C@@H]1N(C)c1ncnc2[nH]ccc12 [Tofacitinib] (top concentration 5000 nM)	-7.36	-7.86	0.44	-7.86	-7.86	-7.86	-7.86	-7.86	1.74	-7.86	-7.86	-7.86	-4.66	-7.86	-7.66	-7.86	-7.86	-7.86	-6.86	-3.56
COc1cc2c(NC3CCN(C(C)C)CC3)nc(C3CCCCC3)nc2cc1OCCCN1CCCC1 [UNC0638] (top concentration 10000 nM)	-0.54	1.16	1.86	-3.04	-2.64	-2.64	-0.04	0.06	3.36	-2.84	-1.64	8.26	1.26	-5.14	-0.24	2.16	-2.84	-4.34	-0.84	0.16
